According to patent US20230399368A1, “CARRIER PEPTIDE FRAGMENT AND USE THEREOF” (TOAGOSEI CO., LTD., priority 2020, published 2023):
“Also recorded” adds a separate entry of the source. FAM = fluorescent dye FAM

Tested on: HeLa cells
Test: Evaluation of the cell membrane permeability by flow cytometry (FAM fluorescence) in HeLa cell culture
Format: cell-based, human
Details: for MFI (mean fluorescent intensity): 10 μM in culture medium, 0.5% DMSO, 20 hours incubation at 37° C., detector FL2, mean value of triplicate; for introduction of the fluorescent dye (FAM) into the cytoplasm, shift of the flow cytometry histogram on the X-axis (FIG. 1): compared with Example 3 (only FAM) or Example 2
Procedure: The cell membrane permeability of sample 1 and sample 2 was evaluated using HeLa cells (an established cell line derived from human cervical cancer cells) as the eukaryotic cells.
HeLa cells were cultured on DMEM (Dulbecco's modified Eagle's medium (Cat. No. 043-30085, from FUJIFILM Wako Pure Chemical Corporation)) containing 10% FBS (fetal bovine serum), which is a general culture medium.
The HeLa cells attached to the culture plate were washed with PBS, a 0.25% trypsin/EDTA solution was then added, and incubation was carried out for 3 minutes at 37° C. After this incubation, the aforementioned DMEM containing 10% FBS was added and the trypsin was inactivated, and the cells were then sedimented by carrying out centrifugal separation for 5 minutes at 150×g. The supernatant produced by the centrifugal separation was removed, and the aforementioned DMEM containing 10% FBS was added to the sediment (cell pellet) to prepare a cell suspension containing approximately 1×10^5 cells/mL. The cells were seeded (approximately 2×10^5 cells/well) by the addition of 2 mL of this cell suspension to the wells of a commercial 6-well plate (Iwaki). The cells were attached to the well bottom by culture for 3 hours at 37° C. under the condition of 5% CO2. In order to perform the evaluation of the cell membrane permeability in triplicate, the cells were seeded to three wells for the test of Example 1 and the following procedure was performed on each well.
The 2 mM sample solution 1 was then diluted with the aforementioned DMEM containing 10% FBS to prepare a sample solution 1 in which the sample 1 concentration was 20 μM. After the aforementioned 3-hour culture, 1 mL of the culture supernatant was removed from the well, followed by the addition to the well of 1 mL of the 20 μM sample solution 1 (i.e., the concentration of sample 1 in the culture medium in the well was brought to 10 μM and the DMSO concentration was brought to 0.5%). The cells were incubated for 20 hours at 37° C. under the condition of 5% CO2. After this 20-hour incubation, the culture supernatant was removed from the well and the cells in the well were washed twice with 1 mL PBS. 200 μL of a 0.25% trypsin/EDTA solution was then added to the well and incubation was carried out for 3 minutes at 37° C. After this incubation, the trypsin was inactivated by the addition of 400 μL of the aforementioned DMEM containing 10% FBS to the well, and the cells were subsequently recovered by transferring the cell suspension in the well to a tube. The well was then washed by the further addition of 600 μL PBS to the well. The cells that had remained in the well were recovered to the tube by transferring the PBS in the well to the tube. Centrifugal separation was run on this tube for 5 minutes using conditions of 4° C. and 210×g. After the centrifugal separation, the supernatant was removed, the sediment (cell pellet) was suspended (washed) with 1 mL of PBS, and centrifugal separation was carried out using the same conditions as before. After this procedure had been performed twice, the supernatant was removed to obtain cells (cell pellet) that had been cultured on a sample 1-containing culture medium.
The cell membrane permeability of sample 1 was evaluated using the resulting cells (cell pellet) and a flow cytometer. An On-Chip Flow Cytometer (On-chip Biotechnologies Co., Ltd.) was used for the flow cytometer.
For this analysis, the cell pellet obtained as described above was suspended in 50 μL PBS. To this suspension was added 50 μL of Sample Buffer 2× for use with the indicated flow cytometer to prepare a cell suspension for submission to analysis.
Gating was performed using this flow cytometer based on forward scatter (FSC) and side scatter (SSC); the gating was set for the cell population that was the target of the analysis; and the fluorescent intensity was measured for the cell population within this gating. The analysis was performed so this cell population reached at least 5,000 or more. […]

Row | Substance | MFI (mean fluorescent intensity) | introduction of the fluorescent dye (FAM) into the cytoplasm, shift of the flow cytometry histogram on the X-axis (FIG. 1) (10 μM, 20 hours incubation) | efficiency (cell membrane permeability) compared using the MFI, Example 1 versus Example 2 (10 μM, 20 hours incubation, ratio of MFI of Table 3)
1 | FAM-KKRTLRKNDRKKR-CONH2 ({FAM}-KKRTLRKNDRKKR-NH2) [Example 2, reference compound] | 15.5 | more efficiently introduced | –
2 | FAM-MAPRGFSCLLLLTSEIDLPVKRRA-COOH ({FAM}-MAPRGFSCLLLLTSEIDLPVKRRA-OH; listed as Homo sapiens) [Example 1] | 33.7 | more efficiently introduced; also recorded: shifted more to the right on the X-axis than was the histogram for Example 2 | approximately twice as high
3 | 5(6)-carboxyfluorescein [Example 3, reference compound] | 6 | – | –
